From ChEMBL document CHEMBL1909046, “DrugMatrix in vitro pharmacology data”

Legend:
[1] = target: Beta-3 adrenergic receptor (Homo sapiens, UniProt P13945); test: DRUGMATRIX: Adrenergic beta3 radioligand binding (ligand: [125I] Cyanopindolol); format: cell membranes, HEK293, Membrane; conditions: hek293; Not Active = under 50% inhibition at 10 µM
Cytochrome P450 2D6 = Cytochrome P450 2D6 (Homo sapiens, UniProt P10635); conditions: bti-tn-5b1-4; note: in other assays of this panel Not Active means under 50% inhibition at 10 µM
[2] = target: Mitogen-activated protein kinase 3 (Homo sapiens, UniProt P27361); test: DRUGMATRIX: Protein Serine/Threonine Kinase, ERK1 enzyme inhibition (substrate: Myelin Basic Protein); design: species or system Escherichia coli; conditions: Not Active = under 50% inhibition at 10 µM
[3] = target: T1, Muscarinic acetylcholine receptor M2 (Homo sapiens, UniProt P08172); format: cell membranes, CHO-K1, Membrane; note: in other assays of this panel Not Active means under 50% inhibition at 10 µM
T1 sequence (P08172 whole entry): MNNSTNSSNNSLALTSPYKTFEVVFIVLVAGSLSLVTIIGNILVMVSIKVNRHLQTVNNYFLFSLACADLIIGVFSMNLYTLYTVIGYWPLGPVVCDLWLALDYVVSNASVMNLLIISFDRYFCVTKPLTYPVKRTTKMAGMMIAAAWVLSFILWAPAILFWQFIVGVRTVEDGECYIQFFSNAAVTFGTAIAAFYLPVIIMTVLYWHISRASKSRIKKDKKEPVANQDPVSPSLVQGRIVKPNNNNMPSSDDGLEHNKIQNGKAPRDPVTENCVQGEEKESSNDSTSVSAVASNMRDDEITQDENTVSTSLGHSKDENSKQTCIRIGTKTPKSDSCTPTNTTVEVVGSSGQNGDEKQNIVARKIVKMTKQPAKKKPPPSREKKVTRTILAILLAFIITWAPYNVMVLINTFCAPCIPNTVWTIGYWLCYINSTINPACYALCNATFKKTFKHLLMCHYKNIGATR

[4] = target: 5-hydroxytryptamine receptor 4 (Cavia porcellus, UniProt O70528); format: cell membranes, Dunkin-Hartley, Striatum, Membrane; note: in other assays of this panel Not Active means under 50% inhibition at 10 µM
[5] = DRUGMATRIX: Atrial Natriuretic Factor (ANF) radioligand binding (ligand: [125I] ANF (rat)); format: cell membranes, Cavia porcellus, Dunkin-Hartley, Adrenal gland, Membrane; conditions: Not Active = under 50% inhibition at 10 µM

Beta-3 adrenergic receptor, sequence (P13945 whole entry): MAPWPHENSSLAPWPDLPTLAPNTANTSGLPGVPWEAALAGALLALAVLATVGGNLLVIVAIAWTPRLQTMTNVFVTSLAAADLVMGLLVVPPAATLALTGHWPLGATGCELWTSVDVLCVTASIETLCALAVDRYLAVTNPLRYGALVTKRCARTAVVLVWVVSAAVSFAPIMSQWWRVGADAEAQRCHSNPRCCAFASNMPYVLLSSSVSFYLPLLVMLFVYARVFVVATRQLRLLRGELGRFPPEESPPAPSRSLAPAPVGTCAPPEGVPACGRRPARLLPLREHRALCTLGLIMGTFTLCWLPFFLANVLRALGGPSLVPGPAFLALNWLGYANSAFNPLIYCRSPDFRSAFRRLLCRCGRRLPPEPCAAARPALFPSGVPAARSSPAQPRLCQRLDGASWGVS
5-hydroxytryptamine receptor 4, sequence (O70528 whole entry): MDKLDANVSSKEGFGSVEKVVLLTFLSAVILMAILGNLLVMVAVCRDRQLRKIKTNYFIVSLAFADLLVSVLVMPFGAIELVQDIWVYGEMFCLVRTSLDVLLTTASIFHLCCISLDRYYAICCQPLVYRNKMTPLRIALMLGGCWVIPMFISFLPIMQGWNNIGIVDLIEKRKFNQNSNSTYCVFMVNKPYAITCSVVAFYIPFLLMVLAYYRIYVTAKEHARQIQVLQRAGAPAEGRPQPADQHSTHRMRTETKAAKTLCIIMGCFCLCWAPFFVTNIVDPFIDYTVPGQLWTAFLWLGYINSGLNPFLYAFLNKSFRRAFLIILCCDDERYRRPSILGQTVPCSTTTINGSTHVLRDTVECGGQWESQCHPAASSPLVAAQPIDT
Mitogen-activated protein kinase 3, sequence (P27361 whole entry): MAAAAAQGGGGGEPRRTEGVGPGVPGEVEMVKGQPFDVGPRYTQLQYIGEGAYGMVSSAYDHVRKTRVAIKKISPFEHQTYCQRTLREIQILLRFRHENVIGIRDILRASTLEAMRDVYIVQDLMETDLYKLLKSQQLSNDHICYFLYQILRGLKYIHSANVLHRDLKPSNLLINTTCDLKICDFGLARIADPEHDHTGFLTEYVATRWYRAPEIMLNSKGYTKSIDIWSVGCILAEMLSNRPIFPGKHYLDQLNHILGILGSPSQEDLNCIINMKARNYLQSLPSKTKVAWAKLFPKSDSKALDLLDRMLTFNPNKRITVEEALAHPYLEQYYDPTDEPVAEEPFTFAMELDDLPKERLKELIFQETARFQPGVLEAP
Cytochrome P450 2D6, sequence (P10635 whole entry): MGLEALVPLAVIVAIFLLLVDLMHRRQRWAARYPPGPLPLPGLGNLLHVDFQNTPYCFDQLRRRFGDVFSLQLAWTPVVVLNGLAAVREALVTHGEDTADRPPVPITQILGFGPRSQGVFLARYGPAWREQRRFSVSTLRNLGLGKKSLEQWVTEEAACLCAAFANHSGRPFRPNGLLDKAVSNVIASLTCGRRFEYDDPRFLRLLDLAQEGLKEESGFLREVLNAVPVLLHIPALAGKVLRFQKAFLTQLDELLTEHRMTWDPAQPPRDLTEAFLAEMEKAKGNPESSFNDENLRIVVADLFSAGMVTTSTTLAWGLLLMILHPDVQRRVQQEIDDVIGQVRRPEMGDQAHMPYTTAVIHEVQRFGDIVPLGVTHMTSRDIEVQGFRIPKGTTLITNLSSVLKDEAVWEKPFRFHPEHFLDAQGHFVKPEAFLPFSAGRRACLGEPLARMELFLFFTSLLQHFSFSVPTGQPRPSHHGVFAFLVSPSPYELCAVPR

Compound	IC50 [1]	IC50 (Cytochrome P450 2D6)	Ki (Cytochrome P450 2D6)	IC50 [2]	IC50 ([3]; cho-k1)	IC50 [4]	IC50 [5]	Ki [5]	Ki [1]	Ki [2]	Ki ([3]; cho-k1)	Ki [4]	IC50 ([4]; read-out: IC50) [nM]	Ki ([4]; read-out: Ki) [nM]	IC50 ([3]; read-out: IC50) [nM]	Ki ([3]; read-out: Ki) [nM]	IC50 ([2]; read-out: IC50) [nM]
COc1ccc(Cl)cc1C(=O)NCCc1ccc(S(=O)(=O)NC(=O)NC2CCCCC2)cc1 [GLYBURIDE]	Not Active	Not Active	Not Active	Not Active	Not Active	Not Active	Not Active	Not Active									
CHROMIC CHLORIDE	Not Active	Not Active	Not Active	Not Active	Not Active	Not Active	Not Active	Not Active	Not Active	Not Active	Not Active	Not Active					
CCN1C[C@]2(COC)[C@H](O)C[C@H](OC)[C@@]34[C@@H]5C[C@@]6(O)[C@H](OC(=O)c7ccccc7)[C@@H]5[C@@](OC(C)=O)([C@@H]([C@H](OC)[C@H]23)[C@@H]14)[C@@H](O)[C@@H]6OC [ACONITINE]	Not Active	Not Active	Not Active	Not Active	Not Active	Not Active	Not Active	Not Active									
O=C(O)CCc1nc(-c2ccccc2)c(-c2ccccc2)o1 [OXAPROZIN]	Not Active	Not Active	Not Active	Not Active	Not Active	Not Active	Not Active	Not Active									
Cc1ccnc2c1NC(=O)c1cccnc1N2C1CC1 [NEVIRAPINE]	Not Active	Not Active	Not Active	Not Active	Not Active	Not Active	Not Active	Not Active									
Clc1cc(Cl)c(OCC#CI)cc1Cl [HALOPROGIN]	Not Active	Not Active	Not Active	Not Active	Not Active	Not Active	Not Active	Not Active									
COc1ccccc1OCCNCC(O)COc1cccc2[nH]c3ccccc3c12 (stereo not given) [CARVEDILOL]		Not Active	Not Active	Not Active	Not Active		Not Active	Not Active					1090	181			
CCN1CCN(c2cc3c(cc2F)c(=O)c(C(=O)O)cn3C2CC2)CC1 [ENROFLOXACIN]	Not Active	Not Active	Not Active	Not Active	Not Active	Not Active	Not Active	Not Active									
POVIDONE	Not Active	Not Active	Not Active	Not Active	Not Active	Not Active	Not Active	Not Active	Not Active	Not Active	Not Active	Not Active					
C=C(Cl)Cl [1,1-DICHLOROETHENE]	Not Active	Not Active	Not Active	Not Active	Not Active	Not Active	Not Active	Not Active									
CC(=O)[C@]1(O)Cc2c(O)c3c(c(O)c2[C@@H](O[C@H]2C[C@H](N)[C@H](O)[C@H](C)O2)C1)C(=O)c1ccccc1C3=O [IDARUBICIN]	Not Active	Not Active	Not Active	Not Active	Not Active	Not Active	Not Active	Not Active									
NC(=O)CN1CCCC1=O	Not Active	Not Active	Not Active	Not Active	Not Active	Not Active	Not Active	Not Active									
CO[C@H]1O[C@@H]2O[C@@]3(C)CC[C@H]4[C@H](C)CC[C@@H]([C@H]1C)[C@@]24OO3	Not Active	Not Active	Not Active	Not Active	Not Active	Not Active	Not Active	Not Active									
CC12CCC(CC1)C(C)(C)O2 [EUCALYPTOL]	Not Active	Not Active	Not Active	Not Active	Not Active	Not Active	Not Active	Not Active									
C[N+](C)(C)CCOC(N)=O.[Cl-] [CARBACHOL]	Not Active	Not Active	Not Active	Not Active	Not Active	Not Active	Not Active	Not Active									
NS(=O)(=O)c1cc(C(=O)O)c(NCc2ccco2)cc1Cl [FUROSEMIDE]	Not Active			Not Active	Not Active	Not Active	Not Active	Not Active									

Compound	IC50 [1]	IC50 (Cytochrome P450 2D6)	Ki (Cytochrome P450 2D6)	IC50 [2]	IC50 ([3]; cho-k1)	IC50 [4]	IC50 [5]	Ki [5]	Ki [1]	Ki [2]	Ki ([3]; cho-k1)	Ki [4]	IC50 ([4]; read-out: IC50) [nM]	Ki ([4]; read-out: Ki) [nM]	IC50 ([3]; read-out: IC50) [nM]	Ki ([3]; read-out: Ki) [nM]	IC50 ([2]; read-out: IC50) [nM]
CC(C)NCC(O)COc1ccc(CC(N)=O)cc1 (stereo not given) [ATENOLOL]	Not Active			Not Active	Not Active	Not Active	Not Active	Not Active									
Oc1ncnc2[nH]ncc12 [ALLOPURINOL]	Not Active	Not Active	Not Active	Not Active	Not Active	Not Active	Not Active	Not Active									
NCC(CC(=O)O)c1ccc(Cl)cc1 (stereo not given) [BACLOFEN]	Not Active	Not Active	Not Active	Not Active	Not Active	Not Active	Not Active	Not Active									
O=C1CN(/N=C/c2ccc([N+](=O)[O-])o2)C(=O)N1 [NITROFURANTOIN]	Not Active	Not Active	Not Active	Not Active	Not Active	Not Active	Not Active	Not Active									
CC12CCC(CC1=O)C2(C)C (stereo not given) [CAMPHOR]	Not Active	Not Active	Not Active	Not Active	Not Active	Not Active	Not Active	Not Active									
Cc1c(N)nc([C@H](CC(N)=O)NC[C@H](N)C(N)=O)nc1C(=O)N[C@H](C(=O)N[C@H](C)[C@@H](O)[C@H](C)C(=O)N[C@H](C(=O)NCCc1nc(-c2nc(C(=O)NCCC[S+](C)C)cs2)cs1)[C@@H](C)O)[C@@H](O[C@@H]1O[C@@H](CO)[C@@H](O)[C@H](O)[C@@H]1O[C@H]1O[C@H](CO)[C@@H](O)[C@H](OC(N)=O)[C@@H]1O)c1c[nH]cn1.[Br-] [BLEOMYCIN A2]	Not Active	Not Active	Not Active	Not Active	Not Active	Not Active	Not Active	Not Active									
CN(Cc1cc(Br)cc(Br)c1N)C1CCCCC1 [BROMHEXINE]	Not Active				Not Active	Not Active	Not Active	Not Active									
Cc1cc(C(C)(C)C)c(O)c(C)c1CC1=NCCN1 [OXYMETAZOLINE]	Not Active			Not Active	Not Active	Not Active	Not Active	Not Active									
c1ccc(Cn2ccnc2)cc1	Not Active			Not Active	Not Active	Not Active	Not Active	Not Active									
CC(N)Cc1c[nH]c2ccc(OCc3cccs3)cc12 (stereo not given) [BW-723C86]	Not Active			Not Active	Not Active	Not Active	Not Active	Not Active									
O=C(O)CNCP(=O)(O)O [GLYPHOSATE]	Not Active			Not Active	Not Active	Not Active	Not Active	Not Active									
C[C@H]1C[C@H]2[C@@H]3CCC4=CC(=O)C=C[C@]4(C)[C@@]3(F)[C@@H](O)C[C@]2(C)[C@@]1(O)C(=O)CO [BETAMETHASONE]	Not Active			Not Active	Not Active	Not Active	Not Active	Not Active									
C[C@@H]1[C@H](O)[C@@H](C)/C=C/C=C/C=C/C=C/C=C/C=C/C=C/[C@H](O[C@@H]2O[C@H](C)[C@@H](O)[C@H](N)[C@@H]2O)C[C@@H]2O[C@](O)(C[C@@H](O)C[C@@H](O)[C@H](O)CC[C@@H](O)C[C@@H](O)CC(=O)O[C@H]1C)C[C@H](O)[C@H]2C(=O)O [AMPHOTERICIN B]	Not Active	Not Active	Not Active		Not Active	Not Active	Not Active	Not Active									
CCN(CCO)CCCC(C)Nc1ccnc2cc(Cl)ccc12 (stereo not given) [HYDROXYCHLOROQUINE]	Not Active			Not Active		Not Active	Not Active	Not Active							2950	1050	
CCCCCCNC(=O)n1cc(F)c(=O)[nH]c1=O [CARMOFUR]	Not Active				Not Active	Not Active	Not Active	Not Active									6120
